Source: patent publication US20250115872A1, “GENERATION OF BROWN ADIPOCYTES FROM HUMAN PLURIPOTENT STEM CELLS” (The Brigham and Women's Hospital, Inc., priority 2022, published 2025)

System: iPSC-BAs
Assay: Seahorse assay, oxygen consumption rate in iPSC-BAs
Assay type: cell-based, human
Protocol: FIGS. 8A-D: FIG. 8A—RT-qPCR analysis for UCP1 on 40 day old replated iPSC-derived adipogenic cultures treated with 10 μM forskolin or vehicle control DMSO treatment for 4 hours. Relative gene expression is shown as relative change to undifferentiated iPSC. Mean±SD, n=5, t-test, p<0.01. FIG. 8B—Measurement of glycerol released in culture medium 40 day old replated iPSC-derived adipogenic cultures treated with 10 μM forskolin or vehicle control DMSO treatment for 4 hours. Glycerol amount normalized using total protein amount. Mean±SD, n=4, t-test, p≤0.01. FIG. 8C—Measurement of fluorescent intensity of thermosensitive ERthermAC dye in iPSC derived precursors on day 20 of differentiation and brown adipocytes after 40 days of replating in response to 10 μM forskolin or vehicle control DMSO. Each data point represents Mean±SD, n=3, t-test, p=0.0009. FIG. 8D—Seahorse analysis to measure oxygen consumption rate in iPSC derived precursors on day 20 of differentiation and brown adipocytes after 40 days of replating in response to 1.5 μM oligomycin, 10 μM forskolin or vehicle control DMSO and 1 μM Rotenone and Antimycin (Rot/AA), respectively. Adipocytes or precursor cells were in XFe96 cell culture plates one week prior to the assay. […]
Agilent Seahorse XFe96 Analyzer was used to measure oxygen consumption in live iPSC-BAs and precursor cells following manufacturer's instructions. […] Basal respiration was measured 3 times in the assay medium. […] Cells were then treated with 10 μM Forskolin (Sigma-Aldrich, F6886) or DMSO (Sigma-Aldrich, D2650) and oxygen consumption rate (OCR) was measured for 70 minutes (12 measurements). […] Cells were automatically segmented using custom code in Fiji and number of DAPI and mCherry positive cells were quantified. […]
The process of thermogenesis is driven by the flow of protons through UCP1 in the mitochondrial inner membrane. To examine whether forskolin-induced thermogenesis in iPSC-BAs is coupled to proton leak in mitochondria, we measured oxygen consumption rate (OCR) with a Seahorse metabolic flux analyzer in 40 day-old replated cultures ([…]). […]

[1] = 1 μM Rotenone and Antimycin (Rot/AA), last step, electron transport chain block

**Q.** With `C=C(C)[C@H]1Cc2c(ccc3c2O[C@@H]2COc4cc(OC)c(OC)cc4[C@@H]2C3=O)O1` [Rotenone] as the molecule, how does the “oxygen consumption rate (OCR)” value [1] read?
**A.** drop of OCR

**Q.** For Antimycin, which “oxygen consumption rate (OCR)” value [1] is on record?
**A.** drop of OCR

**Q.** Which “oxygen consumption rate (OCR)” value (1.5 μM Oligomycin alone, versus basal respiration) does the source give for `CC[C@H]1/C=C/C=C/C[C@@H](C)[C@H](O)[C@@](C)(O)C(=O)[C@@H](C)[C@H](O)[C@@H](C)C(=O)[C@@H](C)[C@H](O)[C@@H](C)/C=C/C(=O)O[C@@H]2[C@H](C)[C@H](CC1)O[C@]1(CC[C@H](C)[C@H](C[C@@H](C)O)O1)[C@H]2C` [Oligomycin] here?
**A.** the OCR in cells decreased
